Assay results published in ChEMBL document CHEMBL1131951, “Sialidase inhibitors related to zanamivir: synthesis and biological evaluation of 4H-pyran 6-ether and ketone” (Bioorg Med Chem Lett, 1999).

Tests used:
Influenza B virus = experiment: Inhibitory activity against sialidase of influenza B; assay type: functional, organism-based
Influenza A virus = experiment: Inhibitory activity against sialidase of influenza A; assay type: functional, organism-based

| Compound | IC50 (Influenza B virus) [nM] | IC50 (Influenza A virus) [nM] |
| --- | --- | --- |
| CCC(CC)C(O)[C@@H]1OC(C(=O)O)=C[C@H](N)[C@H]1NC(C)=O (some centres not stated) | 7400 | 39 |
| CCC(CC)C(=O)[C@@H]1OC(C(=O)O)=C[C@H](N)[C@H]1NC(C)=O | 470 | 2 |
| CCC(CC)O[C@@H]1C=C(C(=O)O)C[C@H](N)[C@H]1NC(C)=O [OSELTAMIVIR CARBOXYLATE] | 32 | 2 |
| CC(=O)N[C@H]1[C@H]([C@H](O)[C@H](O)CO)OC(C(=O)O)=C[C@@H]1NC(=N)N [ZANAMIVIR] | 4 | 5 |
| CCN(CC)C(=O)[C@@H]1OC(C(=O)O)=C[C@H](N)[C@H]1NC(C)=O | 360 | 3 |
| CCC(CC)O[C@@H]1OC(C(=O)O)=C[C@H](N)[C@H]1NC(C)=O | 42000 | 770 |
